A short description of series [1]: Solubilities of active ingredient in various solvents (excess added, shaken 2 hours, centrifuged, HPLC). In kind it is physicochemical. The procedure:
In order to find out the most suitable solvent for the solid dispersion, an excessive amount of HM30181A, as an active ingredient, was added to a solvent, shook for 2 hours, and then the resulting mixture was centrifuged and analyzed by HPLC to measure the solubility. Solvents used for solubility test were MC, methanol, EtOH, hexane, diethyl ether, isopropyl alcohol, acetone and DW.

The nature of series [2]: Dissolution characteristics of HM30181A in mixed solvents of MC, EtOH and DW. In kind it is physicochemical.
The mark [3] stands for this setting: Composition 1: HM30181A 15 mg, methylene chloride 450 mg, ethanol 50 mg, distilled water 0 mg.
[4] abbreviates: Composition 2: HM30181A 15 mg, methylene chloride 350 mg, ethanol 150 mg, distilled water 0 mg.
The mark [5] stands for this setting: Composition 3: HM30181A 15 mg, methylene chloride 250 mg, ethanol 250 mg, distilled water 0 mg.
Where [6] appears, read: Composition 5: HM30181A 15 mg, methylene chloride 350 mg, ethanol 150 mg, distilled water 25 mg.

Structures can show the parent of a compound that is named as a salt.

On to `COc1cc2c(cc1OC)CN(CCc1ccc(-n3nnc(-c4cc(OC)c(OC)cc4NC(=O)c4cc(=O)c5ccccc5o4)n3)cc1)CC2` [HM30181A, chromone-2-carboxylic acid [2-(2-{4-[2-(6,7-dimethoxy-3,4-di-hydro-1H-isoquinolin-2-yl)-ethyl]-phenyl}-2H-tetrazol-5-yl)-4,5-dimethoxyphenyl]amine mesylate], for which the Solubility is 9.23 ppm in series [1] (solvent: acetone); 0.00 ppm in series [1] (solvent: diethyl ether); 0.00 ppm in series [1] (solvent: distilled water); 382.63 ppm in series [1] (solvent: ethanol); 0.05 ppm in series [1] (solvent: hexane); 31.29 ppm in series [1] (solvent: isopropyl alcohol). Further, the Solubility in series [1] (solvent: methanol) is 10177.50 ppm; in series [1] (solvent: methylene chloride), 6848.28 ppm; in series [2] (setting [3]), 10,260 ppm; in series [2] (setting [4]) it was 20,370 ppm; in series [2] (setting [5]) it was 4,710 ppm; in series [2] (setting [6]) it was 27,850 ppm. Besides, the Solution appearance result in series [2] (setting [3]) is reported as “Clouded”; in series [2] (setting [4]) it was “Clouded”; in series [2] (setting [5]) it was “Clouded”; in series [2] (setting [6]), “Clear”.

The record behind these values is patent US9283218B2, “Solid dispersion with improved solubility comprising tetrazole derivative as an active ingredient” (HANMI PHARM. CO., LTD., priority 2012, dated 2016).
